# Paper PMC7613620, “Reaction hijacking of tyrosine tRNA synthetase as a whole-of-life-cycle antimalarial strategy” (Science (New York, N.Y.), 2022)
# What was measured:
# [1] = system: P. falciparum male gametes; experiment: Dual gamete formation assay (male); assay type: cell-based; conditions: Plasmodium falciparum
# Procedure: 604 Activity against transmissible stages of P. falciparum
# 605 Activity against male gametes was assessed using the dual gamete formation assay (PfDGFA)(32).
# 606 Compounds were incubated with mature stage V gametocytes ([…], kind gift from Professor Chris Janse
# 607 at Leiden University Medical Center (LUMC), the Netherlands) for 48 hours in 384 well plates before
# 608 gamete formation was triggered by a drop in temperature and addition of xanthurenic acid. Male gamete
# 609 exflagellation was recorded and quantified by automated microscopy. The ability of female gametes to
# 611 Multiple data sets using different gametocyte cultures were collected on each of two separate days.
# 613 Activity against exoerythrocytic stages
# 614 Primary human hepatocytes (H1500.H15B+ Lot No. HC10-10 Cryopreserved human hepatocytes)
# 615 were cultured for 2 days and then overlaid with P. falciparum NF54 sporozoites and compounds.
# 616 Supernatant was refreshed daily with fresh compounds.
# [2] = system: P. falciparum 3D7 clones selected with ML901 (D4, F7, B11); experiment: In vitro evolved ML901-resistant 3D7 clones, IC50_72h; assay type: cell-based, Plasmodium falciparum
# Procedure: 537 Screening of nucleoside sulfamates for inhibition of the growth of cultures of P. falciparum (3D7).
# 538 High throughput screening of compounds from the Takeda library was performed by SCYNEXIS, Inc.
# 539 Jersey City, NJ, USA. Synchronized (5% sorbitol) ring stage parasites (3D7 strain; 1.5% haematocrit; 0.1
# 540 – 0.5% starting parasitemia) were incubated in 96-well plates, in triplicate, diluted in DMSO, for 72 h in
# 541 RPMI 1640 supplemented with 10% human serum, 5% CO2, 5% O2, 90% N2. Infected RBCs were lysed
# 542 with 10 mM Tris HCl, 5 mM EDTA, 0.008% saponin, 0.08% Triton X-100, pH 7.5, containing SYBR
# 543 Green. Following incubation for 15-60 min, fluorescence signal was assessed. Sigmoidal dose response
# 544 curves were generated and the IC50 values determined using CLfit curve fitting software from IDBS […]
# 549 stage parasites (3D7 strain (43)) were incubated with the inhibitors for 72 h and viability was assessed in […]
# 638 precipitated with acetonitrile and the remaining compound was assessed by LC-MS/MS in the selected reaction […]
# 648 0.5% formic acid in methanol and the supernatants were analysed by positive ion electrospray LC-MS for
# 649 the administered compound. Non-compartmental pharmacokinetic parameters were calculated from […]
# 660 IGM Genomics Center on the Illumina HiSeq 2500 in RapidRun mode to generate 100bp paired-end reads.
# [3] = system: HCT116; experiment: HCT116 cell viability (ATP content); assay type: cell-based; conditions: Homo sapiens, HCT-116, 72 h, read-out: HCT116 IC50(72h)
# Procedure: 574 H1650 is a human lung cancer derived ATG7-null cell line (49) that can be used to assess effects on targets
# 576 adenocarcinoma; bronchoalveolar carcinoma). Other cells lines used are: H460 (NCI-H460; human lung;
# 577 carcinoma; large cell lung cancer; ATCC: HTB-177); and HCT116 (human colon; colorectal carcinoma;
# 578 ATCC: CCL-247; Lot : 5056139). Each of the cell lines was received from the American Type Culture
# 579 Collection (ATCC) and passaged twice before freezing. Cells were cultured in the presence or absence of
# 580 inhibitors and cell viability was assessed by comparing the ATP content in compound-treated wells with
# 581 that in DMSO-treated wells as previously described (11). […]
# 585 37°C humidified incubator as adherent semi-confluent monolayers in complete Dulbecco’s Modified Eagle
# 586 Media (c-DMEM). DMEM (Gibco™, Thermo Fisher Scientific, Australia) was supplemented with 10%
smiles,measurement,setting,value
Nc1ncnc2c1c(OC(F)F)nn2[C@@H]1O[C@H](COS(N)(=O)=O)[C@@H](O)[C@H]1O [ML901],IC50,[1]; 48 h incubation with stage V gametocytes,0.13 ± 0.01 µM
same,inhibition at 25 µM,[1]; at 25 µM,99%
same,reduced sensitivity of selected parasites,"[2]; 3D7 line under increasing compound concentrations over 4 months, versus parent",10 fold
same,IC50,"[2]; Plasmodium falciparum, 3D7, read-out: IC50_72h, ML901-selected resistant clones",0.028 µM
same,IC50,[3],2.28 µM
